From PMC12004523, “Integrated Virtual Screening Approach Identifies New CYP19A1 Inhibitors” (Journal of Chemical Information and Modeling, 2025)

Legend:
[1] = target: T1, human CYP19A1 (aromatase) (Homo sapiens, UniProt P11511); test: cell-based; parameters: Whole-yeast human CYP19A1/CPR testosterone aromatization; estradiol quantified by yeast biosensor fluorescence, flow cytometry, per cent of control; conditions: Saccharomyces cerevisiae byMM1712; 1 uM inhibitor, testosterone substrate; read-out: % of control remaining
T1 sequence (P11511 1-503): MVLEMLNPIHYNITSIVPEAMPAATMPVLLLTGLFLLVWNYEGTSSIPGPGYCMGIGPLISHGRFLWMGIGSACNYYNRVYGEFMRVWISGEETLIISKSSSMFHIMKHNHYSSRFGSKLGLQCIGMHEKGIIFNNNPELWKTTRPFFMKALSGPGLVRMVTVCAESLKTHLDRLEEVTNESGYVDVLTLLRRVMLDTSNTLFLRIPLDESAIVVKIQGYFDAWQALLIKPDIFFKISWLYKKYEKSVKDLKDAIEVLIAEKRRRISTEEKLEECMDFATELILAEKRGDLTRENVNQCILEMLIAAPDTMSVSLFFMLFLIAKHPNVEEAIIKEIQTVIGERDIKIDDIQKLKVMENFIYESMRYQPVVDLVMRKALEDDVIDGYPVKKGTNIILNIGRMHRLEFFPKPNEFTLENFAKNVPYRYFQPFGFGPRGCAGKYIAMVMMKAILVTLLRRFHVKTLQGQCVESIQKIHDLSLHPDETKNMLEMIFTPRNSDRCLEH
T1 sequence (P16435 2-677 partner): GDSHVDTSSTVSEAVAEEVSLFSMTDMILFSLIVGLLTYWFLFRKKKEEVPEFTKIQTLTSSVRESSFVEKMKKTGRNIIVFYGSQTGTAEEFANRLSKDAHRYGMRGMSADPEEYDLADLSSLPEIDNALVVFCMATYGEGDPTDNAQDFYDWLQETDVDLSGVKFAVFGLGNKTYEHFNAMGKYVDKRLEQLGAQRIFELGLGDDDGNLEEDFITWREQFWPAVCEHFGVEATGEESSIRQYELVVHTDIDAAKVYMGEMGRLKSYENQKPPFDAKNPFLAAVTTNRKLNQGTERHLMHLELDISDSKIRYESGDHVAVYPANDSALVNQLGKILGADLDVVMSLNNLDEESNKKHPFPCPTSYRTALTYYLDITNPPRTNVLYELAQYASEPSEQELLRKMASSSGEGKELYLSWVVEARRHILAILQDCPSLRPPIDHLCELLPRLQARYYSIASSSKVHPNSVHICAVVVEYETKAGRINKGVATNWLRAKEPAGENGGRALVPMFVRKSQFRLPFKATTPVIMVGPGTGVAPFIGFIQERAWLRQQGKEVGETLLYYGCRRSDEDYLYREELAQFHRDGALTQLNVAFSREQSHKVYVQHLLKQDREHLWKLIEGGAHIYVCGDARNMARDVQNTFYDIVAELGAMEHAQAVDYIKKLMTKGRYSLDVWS
Procedure: Initially, these inhibitors were applied at a final concentration of 10 μM. […] In addition, 9a lacks a Cl atom and 9b lacks a keto group in comparison to 9. […] (a) Illustration of the enzymatic assay based on heterologous expression of human CYP19A1 used for testing candidate CYP19A1 inhibitors. […] Data are presented as mean ± SEM (n = 3).

[2] = target: T1, human CYP19A1 (aromatase); test: aromatase inhibition in yeast expressing human CYP19A1 and CPR, estradiol biosensor (yEGFP, flow cytometry); type: cell-based
[3] = target: T1, human CYP19A1 (aromatase); test: cell-based; parameters: Yeast expressing human CYP19A1/CPR converts testosterone; estradiol in supernatant read by yeast biosensor, flow cytometry; conditions: for inhibition at 1 µM: read-out: % inhibition (1 μM); for inhibition at 10 µM: read-out: % inhibition (10 μM)
Procedure: A 14-h precultivation period ensured that the aromatase catalytic capacity remained consistent across all independent experiments and the inhibitor cannot act on P450 expression levels. The initial OD600 was diluted to 0.04, and then the yeast culture’s OD600 was measured and adjusted to 2.00 with fresh SDC medium. One mL of yeast solution (OD600 = 2.00) was poured into the wells of a 48-well deep-well cell culture plate (Axygen P-5 ML-48-C). Subsequently, 1 mL of SDC medium containing 120 nM testosterone and either 10 μM or 1 μM of the inhibitor was added to each well containing the yeast solution. The mixture was incubated at 30 °C and 240 rpm for 2 h. After incubation, 1.5 mL of the mixture from each well was transferred to 2 mL tubes and centrifuged at 16,000 rpm to pellet the yeast cells. Then, 1.2 mL of the supernatant was moved to 1.5 mL tubes and labeled according to the inhibitor concentration. For each sample, 1 mL of the supernatant was transferred to a different well of a 48-well deep-well plate. Next, 980 μL of SDC medium and 20 μL of the precultured byMM1984 biosensor cell solution (OD600 adjusted to 5.00 after 14 h of preculture) were added to each well. Finally, flow cytometry was performed as previously described. The entire assay was repeated in three independent experiments to calculate the mean values. […] Initially, these inhibitors were applied at a final concentration of 10 μM. […] In addition, 9a lacks a Cl atom and 9b lacks a keto group in comparison to 9. […] Several factors were considered to avoid assay artifacts.[46] The biosensor gene circuit used in this study is orthogonal to the yeast chassis,[47] ensuring no interference between the biosensor and the yeast host, thus preventing false positives.

Row | remaining activity at 1 µM [1] [%] | IC50 [2] [nM] | inhibition at 1 µM [3] [%] | inhibition at 10 µM [3] [%] | SMILES
1 | – | – | – | 30.9 | CSc1ccc2nc(N3CC(Cn4ccnc4)C3)sc2c1 [compound 2]
2 | – | – | – | 22.8 | O=C(Cc1c(F)cccc1Cl)N1CCC(Cn2ccnc2)CC1 [compound 4]
3 | – | 1130 ± 158 | – | – | CC1(c2ccc(Cl)cc2Cl)OCC(Cn2cncn2)O1 (stereo not shown) [compound 8, 8]
4 | 57 ± 7 | – | 44.3 | 81.7 | CC1(c2ccc(Cl)cc2Cl)OCC(Cn2cncn2)O1 (stereo not shown) [compound 8]
5 | – | – | – | 38.1 | O=c1cc(Cn2ccnc2)c2cc(O)c(-c3ccccc3)cc2o1 [compound 10]

More lines, now with the values behind:

Row | SMILES | remaining activity at 1 µM [1] [%] | IC50 [2] [nM] | inhibition at 1 µM [3] [%] | inhibition at 10 µM [3] [%]
6 | CC(NC(=O)c1cc2cc(Cl)ccc2oc1=O)c1ccc(-n2ccnc2)cc1 (racemic) [compound 9, N-(1-(4-(1H-imidazol-1-yl)phenyl)ethyl)-6-chloro-2-oxo-2H-chromene-3-carboxamide] | 13 ± 2 | 271 ± 51 | – | –
7 | O=C(NCc1ccc(-n2ccnc2)cc1)c1cc2ccccc2oc1=O [9a] | 50 ± 1 | 1040 ± 63 | 51.9 | 87.4
8 | O=C(NCc1ccc(-n2ccnc2)cc1)C1=Cc2cc(Cl)ccc2OC1 [9b] | 58 ± 1 | 1250 ± 190 | 43.8 | 85
9 | O=C(Nc1cccc(-c2cn3cccnc3n2)c1)c1ccc(Cl)cc1Cl [compound 1] | – | – | – | 25.9
10 | COc1ccc(-c2cn3cccnc3n2)cc1NC(=O)Nc1ccc(F)cc1 [compound 7] | – | – | – | 25.6
11 | CC(NC(=O)c1cc2cc(Cl)ccc2oc1=O)c1ccc(-n2ccnc2)cc1 (stereo not shown) [compound 9] | – | – | 89.7 | 96.7
12 | N#Cc1ccc(C(c2ccc(C#N)cc2)n2cncn2)cc1 [letrozole] | – | – | – | 80.4
